The values below come from ChEMBL document CHEMBL3507680, “University of Dundee, Gates Library screen for HepG2 cell viability”.

This series in a line: Human HepG2 cell viability assay in 384 well format. Type of series: toxicity, cell-based. Also on record: dose 125 nL, time 70.5 hour; cytotoxicity at 70.5 h: concentration not given beside the values. Conditions: HepG2 cells, read-out: Inhibition.

Regarding `O=C(c1ccncc1)N1CCC(c2nc(O)cc(-c3cccnc3)n2)C1` (configuration not stated), the cytotoxicity at 70.5 h was -17.2%.

Take `CNc1nc(C)c(C(=O)N2CCCCC2CN2CCCCCC2)s1` (configuration not stated): the cytotoxicity at 70.5 h was -17.9%.

Take `Cc1ccc(-c2nnc(SCC(=O)O)n2-c2ccc(C)cc2)cc1`: the cytotoxicity at 70.5 h is -15.4%.

Regarding `CC(C)N1CCC(Cc2cncc(-c3ccccc3C(=O)O)n2)CC1`, the cytotoxicity at 70.5 h was -17.6%.

On to `CC1(C(=O)N2CCOCC2)CN(Cc2ccccc2F)CCO1` (configuration not stated), for which the cytotoxicity at 70.5 h is -11.3%.

Take `COCC(=O)N1CCCC1c1cc(Nc2nnc(C)s2)nc(C)n1` (configuration not stated): the cytotoxicity at 70.5 h came out at 21.4%.

For `Cc1noc(C)c1-c1cncc(C2CCCN2Cc2cncnc2)n1` (configuration not stated), the cytotoxicity at 70.5 h was -20.4%.

Take `Cc1nonc1C(=O)N1CCCC(c2ncncc2-c2ccncc2)C1` (configuration not stated): the cytotoxicity at 70.5 h is -28.8%.

On to `Cc1cc(-c2cnc(NC3CC3)nc2-c2ccc(C)o2)on1`, for which the cytotoxicity at 70.5 h is -9.8%.

In the case of `Cc1cc(-c2cnc(N3CCNC(=O)C3)nc2-c2ccc(C)o2)on1`, the cytotoxicity at 70.5 h is -16.3%.

For the compound `c1cnc(-c2cnc(N3CCSCC3)nc2C2CC2)cn1`, the cytotoxicity at 70.5 h was -15.9%.

Take `Cn1cc(CN2CCc3c(nc(-c4ccccn4)[nH]c3=O)C2)cn1`: the cytotoxicity at 70.5 h is -23.4%.

`CC(=O)N1CCC(Cc2cnc(-c3c(C)nn(C)c3C)cn2)C1` (configuration not stated): the cytotoxicity at 70.5 h was -25.8%.

On to `Cc1nc(C2CCCCN2C(=O)c2ccccc2)ncc1C(=O)N(C)C` (configuration not stated), for which the cytotoxicity at 70.5 h is -12%.

In the case of `Cc1cccc(Nc2nccnc2C2CCCN2CC(=O)N(C)C)n1` (configuration not stated), the cytotoxicity at 70.5 h was found to be 18.8%.

For the compound `CN1CCCCC1c1ncc2c(n1)CCN(Cc1ccccc1Cl)C2` (configuration not stated), the cytotoxicity at 70.5 h is -7.2%.

For the compound `COc1ccc(CN2CCc3nc(C4CCCCN4C)ncc3C2)cc1` (configuration not stated), the cytotoxicity at 70.5 h was -10.4%.

Regarding `NC(=O)C1(Cc2ccccc2-c2ccccc2)CCCN(CC2CC2)C1` (configuration not stated), the cytotoxicity at 70.5 h is -14.5%.

In the case of `CC(C)S(=O)(=O)N1CCC(c2cc3n(n2)[C@@H](C(F)(F)F)C[C@@H](C)N3)C1` (some centres not stated), the cytotoxicity at 70.5 h was -11%.

Take `O=C(NCC1CC1)Nc1cnc2cc(Cl)ccc2c1O`: the cytotoxicity at 70.5 h is -1.93%.

Regarding `COc1ccc2c(O)c(NC(=O)NCC3CC3)cnc2c1`, the cytotoxicity at 70.5 h worked out at 9.51%.

Take `CC1CCCN(Cc2c(C3CCOCC3)[nH]c3ncccc23)C1` (configuration not stated): the cytotoxicity at 70.5 h stood at 26.7%.

On to `O=C(c1ccncc1)N1Cc2ccccc2OC2(CCOCC2)C1`, for which the cytotoxicity at 70.5 h is -18.2%.

For `O=C(O)C1(Cc2cc(-c3ccc(F)cc3F)no2)CCOCC1`, the cytotoxicity at 70.5 h is 20.5%.

`Cc1cc2c(=O)n3c(nc2s1)CCN(C(=O)c1scnc1C)CC3`: the cytotoxicity at 70.5 h was -12.5%.

Regarding `Cc1cc(-c2cnc(NC3CCCC3)nc2-c2ccoc2C)on1`, the cytotoxicity at 70.5 h is -8.8%.

In the case of `CCN(CC)CCNc1ncc(-c2cc(C)no2)c(-c2ccoc2C)n1`, the cytotoxicity at 70.5 h was -10.5%.

Turning to `Cc1ccc(-c2cc(N)c(=O)n(CC(=O)NCC3CC3)n2)s1`, the cytotoxicity at 70.5 h is -23.3%.

For `CNC(=O)CCc1cc(C)nc(C2CCCN2)c1` (configuration not stated), the cytotoxicity at 70.5 h was -13.7%.

In the case of `COCCN1CCC(Cc2cncc(-c3ccc(C(=O)O)cc3)n2)C1` (configuration not stated), the cytotoxicity at 70.5 h was -11.8%.

As to `NCc1cnn(-c2ccccc2C(=O)NCc2ccncc2)c1`, the cytotoxicity at 70.5 h was -8.5%.

Take `Cc1ncc(CNC(=O)Cc2ccc(Cl)cc2)c(C2CCCN2C)n1` (configuration not stated): the cytotoxicity at 70.5 h was -16.7%.

On to `CCCn1ncc(CN2C[C@@H]3CCCN3C[C@@H]2CCSC)c1C`, for which the cytotoxicity at 70.5 h amounted to 8.56%.

As for `CN(C)C(=O)C1(CCCc2ccncc2)CCCN1` (configuration not stated), the cytotoxicity at 70.5 h amounted to 9.48%.

With `Nc1cc(N2CCCC2c2cnccn2)ncn1` (configuration not stated), the cytotoxicity at 70.5 h was -7.75%.

Consider `NC(=O)C1CN(Cc2c[nH]cn2)CCN(C2CCOCC2)C1` (configuration not stated), for which the cytotoxicity at 70.5 h is -9.19%.

Take `c1cc2nccc(CC3CCCN(Cc4ncc[nH]4)CC3)c2cn1` (configuration not stated): the cytotoxicity at 70.5 h was -7.89%.

Regarding `COCC(=O)N1CCC(c2noc3nc(C)cc(C(F)(F)F)c23)CC1`, the cytotoxicity at 70.5 h stood at 24.6%.

`CC(=O)N1CCN(c2cc(C3CN(C)CCO3)nc(C)n2)CC1` (configuration not stated): the cytotoxicity at 70.5 h is -11.6%.

For `CN(Cc1nc(C(F)(F)F)cs1)C(=O)CCc1ccccn1`, the cytotoxicity at 70.5 h is -1.82%.

With `CC(=O)N1CC(C)CN(C(=O)c2cscn2)c2ccccc21` (configuration not stated), the cytotoxicity at 70.5 h stood at 2.08%.

On to `CC(=O)N1CC(C)CN(C(=O)c2cccnc2C)c2ccccc21` (configuration not stated), for which the cytotoxicity at 70.5 h was -7.8%.

For `Cc1cccc(Oc2ccccc2CNC(=O)C2CCC(=O)NC2)c1` (configuration not stated), the cytotoxicity at 70.5 h was -10.6%.

As to `O=C1CCN(C(=O)NCCc2c[nH]c3ccc(Cl)cc23)CCN1`, the cytotoxicity at 70.5 h is -8.44%.

Regarding `COC(=O)c1cc(CN2CCC(c3noc(C)n3)CC2)c(C)s1`, the cytotoxicity at 70.5 h came to 2.05%.

Consider `Cc1cccc(Oc2ccccc2CNC(=O)C2CCNC(=O)C2)c1` (configuration not stated), for which the cytotoxicity at 70.5 h was -6.18%.

As to `COC(=O)c1ccc(CN2CCC(c3noc(C)n3)CC2)s1`, the cytotoxicity at 70.5 h was -8.54%.

In the case of `Cc1ccc(CNC(=O)C2CCNC(=O)C2)c(OCCC(C)C)c1` (configuration not stated), the cytotoxicity at 70.5 h came to 0.635%.

`COC(=O)c1ccc(CN2CCN(Cc3nc(C)no3)CC2)s1`: the cytotoxicity at 70.5 h was -7.55%.

Take `O=C(c1cc(F)cc(F)c1)N1CCC(O)(C(F)(F)F)CC1`: the cytotoxicity at 70.5 h is 19.9%.

As to `COCCC(=O)N(C)Cc1nc(C(F)(F)F)cs1`, the cytotoxicity at 70.5 h is -1.8%.

Regarding `CCSCc1ccc(C(=O)N2CCCN(CC)CC2)cc1`, the cytotoxicity at 70.5 h is -10.3%.

As to `CCOc1ccc(SCCNS(=O)(=O)CC)cc1`, the cytotoxicity at 70.5 h was -11.3%.

As for `CN(CCOc1cccc(S(C)(=O)=O)c1)CC(F)F`, the cytotoxicity at 70.5 h was -10.4%.

As to `CN(CCOc1cccc(S(C)(=O)=O)c1)c1ccccc1`, the cytotoxicity at 70.5 h is -2.26%.

For `COCCCN1CCN(CC2CCCO2)CC1` (configuration not stated), the cytotoxicity at 70.5 h came to 22.5%.

Consider `Cn1cnc(S(=O)(=O)N2CCCc3c(F)cc(F)cc32)c1Cl`, for which the cytotoxicity at 70.5 h is 22.3%.

Regarding `Cc1cc(F)c2c(c1)CCCN2S(=O)(=O)c1ncn(C)c1Cl`, the cytotoxicity at 70.5 h is -0.387%.

As for `Cc1nc(C)c(C(C)NCc2c(C)nn(C)c2N(C)C)s1` (configuration not stated), the cytotoxicity at 70.5 h is -6.29%.

Consider `COCCCN1Cc2cccc(NC(=O)c3cc(F)cc(F)c3)c2C1`, for which the cytotoxicity at 70.5 h amounted to 4.56%.

`COCCCN1Cc2cccc(NC(=O)c3cc(F)ccc3F)c2C1`: the cytotoxicity at 70.5 h was -9.4%.

Consider `N#CC1(NC(=O)c2cc(Cl)c3c(c2)OCCCO3)CCC1`, for which the cytotoxicity at 70.5 h was -4.84%.

Regarding `Cn1cc(-c2ncc(C(=O)NCCCn3ccccc3=O)s2)cn1`, the cytotoxicity at 70.5 h was -10.1%.

With `Cc1cc(NC(=O)NCc2nncn2C)ccc1OC(C)C`, the cytotoxicity at 70.5 h was 22.5%.

Take `O=C(NCCc1cc(F)ccc1F)NCC(O)C1CC1` (configuration not stated): the cytotoxicity at 70.5 h came out at 11.6%.

`O=C(NCCCO)NCCc1cc(F)ccc1F`: the cytotoxicity at 70.5 h was -0.605%.

Regarding `O=C(O)c1cc(/C=C/c2ccccc2)ncn1`, the cytotoxicity at 70.5 h was -5.54%.

With `CC1CN(C)c2ccccc2CN1CCn1cncn1` (configuration not stated), the cytotoxicity at 70.5 h was -0.327%.

In the case of `CC(Nc1ccc(C(F)(F)F)cc1C#N)c1cccc(S(N)(=O)=O)c1` (configuration not stated), the cytotoxicity at 70.5 h was 9.79%.

`CC(Nc1c(F)cc(C#N)cc1F)c1cccc(S(N)(=O)=O)c1` (configuration not stated): the cytotoxicity at 70.5 h was -9.34%.

Turning to `COc1ccc(CN2CCn3cccc3C2C)cc1F` (configuration not stated), the cytotoxicity at 70.5 h is -3.79%.

Take `COCCCN1Cc2cccc(NC(=O)c3ccccc3C)c2C1`: the cytotoxicity at 70.5 h was found to be 15.2%.

As to `CC(C)c1ocnc1C(=O)Nc1cccc(Cn2ccccc2=O)c1`, the cytotoxicity at 70.5 h was 19%.

In the case of `O=C(NCc1cccnc1-n1cncn1)c1cc(Cl)ccn1`, the cytotoxicity at 70.5 h came to 12.4%.

`COc1cc2c(cc1OC)CN(C(=O)NCC1CCCO1)CC2` (configuration not stated): the cytotoxicity at 70.5 h is -3.43%.

As to `c1csc(N2CCCN(c3ncnc4sccc34)CC2)n1`, the cytotoxicity at 70.5 h was determined as 10.8%.

On to `O=C(NCc1ccc(-n2cncn2)nc1)c1cc[nH]n1`, for which the cytotoxicity at 70.5 h is -4.63%.

For the compound `COc1ccc2c(c1)CCCN(C(=O)NCC1CCCO1)C2` (configuration not stated), the cytotoxicity at 70.5 h is -8.68%.

Consider `COc1ccc(N2CCC(NC(=O)c3ccc(C#N)cc3)CC2)cc1`, for which the cytotoxicity at 70.5 h was -4.31%.

`Cc1ccc(CNC(C)(C)c2noc(C(C)(C)C)n2)o1`: the cytotoxicity at 70.5 h is -1.89%.

On to `COc1ncnc(N)c1CNCCc1ccccc1`, for which the cytotoxicity at 70.5 h is -2.72%.

For the compound `CC(C)OCCN1CCC(Nc2ncccn2)CC1`, the cytotoxicity at 70.5 h was 0.193%.

`CN1CCC(NC(=O)c2cc(Cl)cc(Br)c2O)C1=O` (configuration not stated): the cytotoxicity at 70.5 h was -5.52%.

As to `COc1ccsc1C(=O)NC1CCN(c2ccc(C#N)cc2)CC1`, the cytotoxicity at 70.5 h was -5.67%.

For `CCN1CCN(C(=O)C2CCOC2)c2ccccc21` (configuration not stated), the cytotoxicity at 70.5 h amounted to 21%.

In the case of `CC(C)COc1cncc(N2CCCC(CC(N)=O)C2)n1` (configuration not stated), the cytotoxicity at 70.5 h is -1.79%.

Regarding `CCC(=O)NC1CCCN(c2cncc(OCc3ccccc3)n2)C1` (configuration not stated), the cytotoxicity at 70.5 h is -0.318%.

On to `NC(=O)CC1CCCN(c2cncc(OCc3ccccc3)n2)C1` (configuration not stated), for which the cytotoxicity at 70.5 h was found to be 21.3%.

As to `Cc1cnc(CCNC(=O)NCCc2ccc(O)cc2)s1`, the cytotoxicity at 70.5 h is -3.5%.

Regarding `CCc1nnc(C(C)N2CCN(CCC(C)(C)C)CC2)o1` (configuration not stated), the cytotoxicity at 70.5 h was -7.09%.

As for `CC1CN(c2ncnc3c2cnn3C)CCN1c1nccs1` (configuration not stated), the cytotoxicity at 70.5 h is -4.86%.

`COc1ccc(C(C)NCCc2ccc(NC(C)=O)cc2)c(OC)c1` (configuration not stated): the cytotoxicity at 70.5 h is 0.0966%.

For `COc1ccc(C(C)NCCc2ccc(NC(C)=O)cc2)cc1F` (configuration not stated), the cytotoxicity at 70.5 h is -4.18%.

On to `CNCC(=O)N1CCCC(c2nccnc2Oc2cccc(F)c2)C1` (configuration not stated), for which the cytotoxicity at 70.5 h is -10.3%.

Consider `O=C(CCC1CCCC1)NCCn1nc(C2CCNC2)c2cccnc21` (configuration not stated), for which the cytotoxicity at 70.5 h is -14.1%.

As for `Cc1ccc2c(c1)CN(C(=O)C1CCCCC1)C(CN(C)C)CO2` (configuration not stated), the cytotoxicity at 70.5 h came out at 0.565%.

In the case of `Cc1cc2c(=O)n3c(nc2s1)CCN(Cc1cnn(C)c1C)CC3`, the cytotoxicity at 70.5 h is -11.8%.

Turning to `Cc1cc(-c2cnc(N3CCCC(C)C3)nc2-c2cccnc2C)on1` (configuration not stated), the cytotoxicity at 70.5 h came to 23.3%.

On to `COc1ccc(OCCc2sc(C3(O)CCCNCC3)nc2C)cc1` (configuration not stated), for which the cytotoxicity at 70.5 h turned out to be 2.2%.

Consider `Cc1ccc(CN(CCCn2ccnc2)Cc2c[nH]cn2)s1`, for which the cytotoxicity at 70.5 h is -0.992%.

Regarding `COc1ccc(CN(Cc2cncn2C)CC2CCCO2)cc1OC` (configuration not stated), the cytotoxicity at 70.5 h was -10.3%.

In the case of `Cc1cc(C[C@@H]2COC[C@H]2NCc2ccc(Br)s2)on1`, the cytotoxicity at 70.5 h was 22.3%.
